The source of these data is patent publication US20060281771A1, “SYNERGISTIC MODULATION OF FLT3 KINASE USING AMINOQUINOLINE AND AMINOQUINAZOLINE KINASE MODULATORS” (priority 2005, published 2006).

For experiment [1], the target named is T1, isolated kinase domain of the human FLT3 receptor (a.a. 571-993) (Homo sapiens, UniProt P36888).
T1 construct: human FLT3 receptor (a.a. 571-993)
T1 sequence (P36888 571-993): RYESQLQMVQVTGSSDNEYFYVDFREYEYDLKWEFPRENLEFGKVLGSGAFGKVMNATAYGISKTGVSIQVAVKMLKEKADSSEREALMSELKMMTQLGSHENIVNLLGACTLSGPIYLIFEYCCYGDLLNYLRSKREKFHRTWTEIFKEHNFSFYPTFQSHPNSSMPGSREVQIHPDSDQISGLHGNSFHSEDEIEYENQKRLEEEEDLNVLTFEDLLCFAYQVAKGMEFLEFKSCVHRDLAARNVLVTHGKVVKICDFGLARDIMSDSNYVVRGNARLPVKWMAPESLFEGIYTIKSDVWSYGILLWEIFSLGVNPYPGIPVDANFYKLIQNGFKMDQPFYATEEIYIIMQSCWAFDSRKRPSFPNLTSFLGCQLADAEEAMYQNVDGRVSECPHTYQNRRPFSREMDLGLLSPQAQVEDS
Briefly: FLT3 fluorescence polarization kinase assay. The format is biochemical. The source says: The FLT3 FP assay utilizes the fluorescein-labeled phosphopeptide and the anti-phosphotyrosine antibody included in the Panvera Phospho-Tyrosine Kinase Kit (Green) supplied by Invitrogen. When FLT3 phosphorylates polyGlu4Tyr, the fluorescein-labeled phosphopeptide is displaced from the anti-phosphotyrosine antibody by the phosphorylated poly Glu4Tyr, thus decreasing the FP value. […] The kinase reaction is stopped with the addition of EDTA. The fluorescein-labeled phosphopeptide and the anti-phosphotyrosine antibody are added and incubated for 30 minutes at room temperature.
All data points are an average of triplicate samples. Inhibition and IC50 data analysis was done with GraphPad Prism using a non-linear regression fit with a multiparamater, sigmoidal dose-response (variable slope) equation.
(Polarisation of emitted light reports the rotation of a fluorescent probe.)

For experiment [2], the target named is T2, wild-type FLT3 phosphorylation in Baf3 FLT3 cells (Homo sapiens, UniProt P36888).
T2 construct: host or cells: Baf3 (murine B cell lymphoma line)
T2 sequence (P36888 27-993): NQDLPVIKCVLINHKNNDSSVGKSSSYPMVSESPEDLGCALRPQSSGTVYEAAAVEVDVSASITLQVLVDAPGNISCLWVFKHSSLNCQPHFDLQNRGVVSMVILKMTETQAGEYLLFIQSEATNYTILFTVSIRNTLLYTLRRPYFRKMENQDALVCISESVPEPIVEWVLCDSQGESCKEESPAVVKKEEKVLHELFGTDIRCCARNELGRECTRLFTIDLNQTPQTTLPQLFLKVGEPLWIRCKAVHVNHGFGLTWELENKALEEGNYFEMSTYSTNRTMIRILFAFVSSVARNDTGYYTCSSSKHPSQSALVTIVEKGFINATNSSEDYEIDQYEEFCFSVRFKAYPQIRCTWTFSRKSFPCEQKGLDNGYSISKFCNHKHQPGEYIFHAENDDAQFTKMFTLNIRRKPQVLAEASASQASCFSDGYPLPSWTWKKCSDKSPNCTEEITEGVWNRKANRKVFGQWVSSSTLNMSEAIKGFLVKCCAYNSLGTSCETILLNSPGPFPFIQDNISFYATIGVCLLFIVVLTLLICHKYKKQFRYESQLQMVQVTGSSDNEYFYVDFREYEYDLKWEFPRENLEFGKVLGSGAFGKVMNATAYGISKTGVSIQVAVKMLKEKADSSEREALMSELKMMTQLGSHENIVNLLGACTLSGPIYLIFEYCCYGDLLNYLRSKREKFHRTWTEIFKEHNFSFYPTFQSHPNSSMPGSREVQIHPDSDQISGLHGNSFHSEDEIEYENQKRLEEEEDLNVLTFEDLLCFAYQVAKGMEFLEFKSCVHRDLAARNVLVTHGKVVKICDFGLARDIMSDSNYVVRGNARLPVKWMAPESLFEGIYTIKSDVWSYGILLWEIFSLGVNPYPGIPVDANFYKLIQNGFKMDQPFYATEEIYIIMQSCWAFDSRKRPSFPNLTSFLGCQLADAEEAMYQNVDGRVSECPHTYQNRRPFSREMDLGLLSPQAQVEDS
Briefly: Cell-based FLT3 receptor ELISA. Particulars: FLT ligand-induced FLT3 phosphorylation. The procedure: Specific cellular inhibition of FLT ligand-induced wild-type FLT3 phosphorylation was measured in the following manner: Baf3 FLT3 cells overexpressing the FLT3 receptor were obtained from Dr. Michael Heinrich (Oregon Health and Sciences University). The Baf3 FLT3 cell lines were created by stable transfection of parental Baf3 cells (a murine B cell lymphoma line dependent on the cytokine IL-3 for growth) with wild-type FLT3. Cells were selected for their ability to grow in the absence of IL-3 and in the presence of FLT3 ligand.
Baf3 cells were maintained in RPMI 1640 with 10% FBS, penn/strep and 10 ng/ml FLT ligand at 37° C., 5% CO2. To measure direct inhibition of the wild-type FLT3 receptor activity and phosphorylation a sandwich ELISA method was developed similar to those developed for other RTKs (see Sadick, M D, Sliwkowski, M X, Nuijens, A, Bald, L, Chiang, N, Lofgren, J A, Wong W L T. Analysis of Heregulin-Induced ErbB2 Phosphorylation with a High-Throughput Kinase Receptor Activation Enzyme-Linked Immunsorbent Assay, Analytical Biochemistry. 1996; 235:207-214 and Baumann C A, Zeng L, Donatelli R R, Maroney A C. Development of a quantitative, high-throughput cell-based enzyme-linked immunosorbent assay for detection of colony-stimulating factor-1 receptor tyrosine kinase inhibitors. J Biochem Biophys Methods. 2004; 60:69-79.). 200 μL of Baf3FLT3 cells (1×10^6/mL) were plated in 96 well dishes in RPMI 1640 with 0.5% serum and 0.01 ng/mL IL-3 for 16 hours prior to 1 hour compound or DMSO vehicle incubation. Cells were treated with 100 ng/mL Flt ligand (R&D Systems Cat# 308-FK) for 10 min. at 37° C. Cells were pelleted, washed and lysed in 100 ul lysis buffer (50 mM Hepes, 150 mM NaCl, 10% Glycerol, 1% Triton-X-100, 10 mM NaF, 1 mM EDTA, 1.5 mM MgCl2, 10 mM NaPyrophosphate) supplemented with phosphatase (Sigma Cat# P2850) and protease inhibitors (Sigma Cat #P8340). Lysates were cleared by centrifugation at 1000×g for 5 minutes at 4° C. Cell lysates were transferred to white wall 96 well microtiter (Costar #9018) plates coated with 50 ng/well anti-FLT3 antibody (Santa Cruz Cat# sc-480) and blocked with SeaBlock reagent (Pierce Cat#37527). Lysates were incubated at 4° C. for 2 hours. Plates were washed 3× with 200 ul/well PBS/0.1% Triton-X-100. Plates were then incubated with 1:8000 dilution of HRP-conjugated anti-phosphotyrosine antibody (Clone 4G10, Upstate Biotechnology Cat#16-105) for 1 hour at room temperature. Plates were washed 3× with 200 ul/well PBS/0.1% Triton-X-100. Signal detection with Super Signal Pico reagent (Pierce Cat#37070) was done according to manufacturer's instruction with a Berthold microplate luminometer. All data points are an average of triplicate samples. […] Inhibition and IC50 data analysis was done with GraphPad Prism using a non-linear regression fit with a multiparamater, sigmoidal dose-response (variable slope) equation.
Background: ELISA stands for enzyme-linked immunosorbent assay.

Broadly, the IC50 is the concentration needed to halve the response being measured. Read a high IC50 as weaker potency in that assay. With `COc1cc2ncc(C#N)c(N3CCC(NC(=O)Nc4ccc(C(C)C)cc4)C3)c2cc1OC` (centres unmarked) [Compound 26, 1-[1-(3-Cyano-6,7-dimethoxy-quinolin-4-yl)-pyrrolidin-3-yl]-3-(4-isopropyl-phenyl)-urea], the figures for the IC50 in experiment [1] and in experiment [2] were 433 nM and 331 nM, respectively.
In the same order, the values of `COc1cc2ncnc(N3CCC(N(C)C(=O)Nc4ccc(OC(C)C)cc4)C3)c2cc1OC` (centres unmarked) [Compound 36, 1-[1-(6,7-Dimethoxy-quinazolin-4-yl)-pyrrolidin-3-yl]-3-(4-isopropoxy-phenyl)-1-methyl-urea] are 1680 nM and 1300 nM.
In the same order, the values of `COc1cc2ncnc(N3CCC(CNC(=O)Nc4ccc(C(C)C)cc4)CC3)c2cc1OC` [Compound 18, 1-[1-(6,7-Dimethoxy-quinazolin-4-yl)-piperidin-4-ylmethyl]-3-(4-isopropyl-phenyl)-urea] are 66 nM and 49 nM.
Taken in the same sequence, the figures for `COc1cc2ncnc(N3CCC(OC(=O)Nc4ccc(OC5CCC5)nc4)C3)c2cc1OC` (centres unmarked) [Compound 12, (6-Cyclobutoxy-pyridin-3-yl)-carbamic acid 1-(6,7-dimethoxy-quinazolin-4-yl)-pyrrolidin-3-yl ester] were 35 nM and 11 nM.
Take `CCN(CC)CC#Cc1ccc2ncnc(N3CCC(OC(=O)Nc4ccc(C(C)C)cc4)C3)c2c1` (centres unmarked) [Compound 17, (4-Isopropyl-phenyl)-3-carbamic acid 1-[6-(3-diethylamino-prop-1-ynyl)-quinazolin-4-yl]-pyrrolidin-3-yl ester]: the values for the IC50 in experiment [1] and in experiment [2] were 63 nM and 163 nM, respectively.
In the same order, the values of `COc1cc2ncnc(N3CCCC(OC(=O)Nc4ccc(C(C)C)cc4)C3)c2cc1OC` (centres unmarked) [Compound 31, (4-Isopropyl-phenyl)-carbamic acid 1-[1-(6,7-dimethoxy-quinazolin-4-yl)-piperidin-3-yl]ester] are 670 nM and 1100 nM.
As to `CC(C)c1ccc(NC(=O)NC2CCN(c3ncnc4ccccc34)C2)cc1` (centres unmarked) [Compound 16, 1-(4-Isopropyl-phenyl)-3-(1-quinazolin-4-yl-pyrrolidin-3-yl)urea], the IC50 in experiment [1] was 45 nM; in experiment [2], 242 nM.
For the compound `COc1cc2ncnc(N3CCC(NC(=O)Nc4ccc(OC(C)C)cc4)C3)c2cc1OC` (centres unmarked) [Compound 8, 1-[1-(6,7-Dimethoxy-quinazolin-4-yl)-pyrrolidin-3-yl]-3-(4-isopropoxy-phenyl)-urea], the values for the IC50 in experiment [1] and in experiment [2] were 23 nM and 360 nM, respectively.
Turning to `COc1cc2ncc(C#N)c(N3CCC(NC(=O)Nc4ccc(OC(C)C)cc4)C3)c2cc1OC` (centres unmarked) [Compound 29, 1-[1-(3-Cyano-6,7-dimethoxy-quinolin-4-yl)-pyrrolidin-3-yl]-3-(4-isopropoxy-phenyl)-urea], the IC50 in experiment [1] was found to be 531 nM; in experiment [2], 3100 nM.
In the same order, the values of `COc1cc2ncnc(N3CCC(C(=O)Nc4ccc(C(C)C)cc4)CC3)c2cc1OC` [Compound 13, 1-(6,7-Dimethoxy-quinazolin-4-yl)-piperidine-4-carboxylic acid (4-isopropyl-phenyl)-amide] are 37 nM and 89 nM.
Regarding `COc1cc2ncnc(N3CCCC(COC(=O)Nc4ccc(C(C)C)cc4)C3)c2cc1OC` (centres unmarked) [Compound 4], the results for the IC50 in experiment [1] and in experiment [2] were 11 nM and 6 nM, respectively.
As for `COc1cc2ncc(C#N)c(N3CCC(OC(=O)Nc4ccc(OC(C)C)cc4)C3)c2cc1OC` (centres unmarked) [Compound 32, (4-Isopropoxy-phenyl)-carbamic acid 1-(3-cyano-6,7-dimethoxy-quinolin-4-yl)-pyrrolidin-3-yl ester], the IC50 in experiment [1] stood at 868 nM; in experiment [2], 1200 nM.
Taken in the same sequence, the figures for `COc1cc2ncnc(N3CCC(OC(=O)Nc4ccc(C(C)C)cc4)C3)c2cc1OC` (centres unmarked) [Compound 2, (4-Isopropyl-phenyl)-carbamic acid 1-(6,7-dimethoxy-quinazolin-4-yl)-pyrrolidin-3-yl ester] were 7 nM and 64 nM.
